Laboratory results reported in patent US10202381B2, “Histone demethylase inhibitors” (CELGENE QUANTICEL RESEARCH, INC., priority 2014, dated 2019).
Like-named read-outs stand apart in the source and are kept apart here.

Assays:
[1] = tested on: KYSE-150 esophageal carcinoma cell line; experiment: In vitro cell-based assay: BrdU cell proliferation ELISA; design: species or system human; details: KYSE-150 cells, BrdU incorporation after 168 hr of compound incubation, read-out: Cellular IC50
Procedure: Cell lines tested include the JMJD2C gene amplified cell line KYSE-150. This is a quantitative ELISA assay measuring DNA incorporation of BrdU during S-phase as a direct readout of cellular proliferation.
Assay Principle: This is a colorimetric immunoassay for the quantification of cell proliferation. Cells treated for 168 hr with test compounds are assayed for their ability to go through S-phase as a measure of their proliferative potential.
Assay Method: The human KYSE-150 (SMAD4 mut, TP53 mut) esophageal carcinoma cell line was seeded at 2,000 cells/well on a 96-well tissue culture treated plate. After an overnight incubation, cells were treated with compound in an 11-point dilution series with final concentrations ranging from 100 μM to 2 nM. Cells were then incubated in the presence of compound for 168 hr. After compound incubation the cells were assayed using a BrdU Cell Proliferation ELISA (Roche). The cells were first incubated with BrdU labeling reagent for 2 hr. After 2 hr, the BrdU incorporated cells were fixed and denatured, probed with an anti-BrdU-Peroxidase antibody for 1.5 hr and washed. Finally, a tetramethylbenzidine peroxidase substrate was added to each well for 15 min. followed by a H2SO4 stop solution. The plate was read at 450 nm, and the raw optical density data was transferred into XLFit (IDBS) for IC50 calculation using the formula: fit=(D+((Vmax*(x^n))/((x^n)+(Km^n)))).
Table 4 provides the cellular IC50 values of various compounds disclosed herein.

JMJD2C = JMJD2C (Homo sapiens (Human), UniProt Q9H3R0); experiment: In vitro enzyme inhibition assay (JMJD2C TR-FRET); type: biochemical; details: 0.3 nM JMJD2C, 300 nM H3K9me3-biotin peptide, 2 μM alpha-ketoglutaric acid
Procedure: This assay determines the ability of a test compound to inhibit JMJD2C demethylase activity. Baculovirus expressed JMJD2C (GenBank Accession #BC143571, AA 2-372) was purchased from BPS Bioscience (Cat#50105).
The ability of test compounds to inhibit the activity of JMJD2C was determined in 384-well plate-format under the following reaction conditions: 0.3 nM JMJD2C, 300 nM H3K9me3-biotin labeled peptide (Anaspec cat #64360), 2 μM alpha-ketoglutaric acid in assay buffer of 50 mM HEPES, pH 7.3, 0.005% Brij35, 0.5 mM TCEP, 0.2 mg/ml BSA, 50 μM sodium L-ascorbate, and 2 μM ammonium iron(II) sulfate. Reaction product was determined quantitatively by TR-FRET after the addition of detection reagent Phycolink Streptavidin-allophycocyanin (Prozyme) and Europium-anti-di-methylated histone H3 lysine 9 (H3K9me2) antibody (PerkinElmer) in the presence of 5 mM EDTA in LANCE detection buffer (PerkinElmer) at a final concentration of 50 nM and 1 nM, respectively.
The assay reaction was initiated by the following: 2 μl of the mixture of 900 nM H3K9me3-biotin labeled peptide and 6 μM alpha-ketoglutaric acid with 2 μl of 11-point serial diluted inhibitor in 3% DMSO were added to each well of the plate, followed by the addition of 2 μl of 0.9 nM JMJD2C to initiate the reaction. The reaction mixture was incubated at room temperature for 30 min, and terminated by the addition of 6 μl of 5 mM EDTA in LANCE detection buffer containing 100 nM Phycolink Streptavidin-allophycocyanin and 2 nM Europium-anti-H3K9me2 antibody. Plates were read by EnVisionMultilabel Reader in TR-FRET mode (excitation at 320 nm, emission at 615 nm and 665 nm) after 1 hr incubation at room temperature. A ratio was calculated (665/615) for each well and fitted to determine inhibition constant (IC50).
The ability of the compounds disclosed herein to inhibit demethylase activity was quantified and the respective IC50 value was determined. Table 3 provides the IC50 values of various compounds disclosed herein.

Chain of JMJD2C (Q9H3R0 2-372): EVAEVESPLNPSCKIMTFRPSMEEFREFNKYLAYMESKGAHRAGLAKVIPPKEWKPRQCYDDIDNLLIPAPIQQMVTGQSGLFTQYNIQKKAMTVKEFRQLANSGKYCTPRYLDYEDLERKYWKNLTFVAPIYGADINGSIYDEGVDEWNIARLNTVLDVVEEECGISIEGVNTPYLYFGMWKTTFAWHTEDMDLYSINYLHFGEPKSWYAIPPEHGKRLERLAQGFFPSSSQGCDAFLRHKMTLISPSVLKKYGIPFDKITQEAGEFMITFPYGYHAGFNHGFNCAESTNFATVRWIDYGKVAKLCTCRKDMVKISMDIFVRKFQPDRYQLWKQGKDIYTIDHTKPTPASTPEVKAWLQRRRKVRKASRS

Molecule	IC50 [1] [nM]	IC50 (JMJD2C) [nM]	IC50 ([1]; Homo sapiens) [nM]
2-(4-{[4-(4-amino-piperidin-1-yl)-phenyl]-methyl-amino}-phenoxy)-pyrido[3,4-d]pyrimidin-4-ol [Example 23]	1000 to 10000	100 to 1000	
CN(c1ccc(Oc2nc(O)c3ccncc3n2)cc1)c1ccc2c(c1)OCC2(C)C [Example 116]		100 to 1000	
CC(C)c1ccc(N(c2ccc(Oc3nc(O)c4ccncc4n3)cc2)C2CCOCC2)cc1 [Example 118, 2-(4-((4-isopropylphenyl)(tetrahydro-2H-pyran-4-yl)amino)phenoxy)pyrido[3,4-d]pyrimidin-4-ol]			1000 to 10000
CC(C)c1ccc(N(c2ccc(Oc3nc(O)c4ccncc4n3)cc2)C2CCN(C)CC2)cc1 [Example 119, 2-(4-((4-isopropylphenyl)(1-methylpiperidin-4-yl)amino)phenoxy)pyrido[3,4-d]pyrimidin-4-ol]		≤ 100	> 10000
CCCN(c1ccc(Oc2nc(O)c3ccncc3n2)cc1)c1ccc(C(C)C)cc1 [Example 120, 2-(4-((4-isopropylphenyl)(propyl)amino)phenoxy)pyrido[3,4-d]pyrimidin-4-ol]		100 to 1000	1000 to 10000
CC(C)c1ccc(N(c2ccc(Oc3nc(O)c4ccncc4n3)cc2)C(C)C)cc1 [Example 122]		1000 to 10000	
CC(C)CN(c1ccc(Oc2nc(O)c3ccncc3n2)cc1)c1ccc(C(C)C)cc1 [Example 123, 2-(4-(isobutyl(4-isopropylphenyl)amino)phenoxy)pyrido[3,4-d]pyrimidin-4-ol]		1000 to 10000	
CC(C)c1ccc(N(c2ccc(Oc3nc(O)c4ccncc4n3)cc2)C2CCCC2)cc1 [Example 125, 2-(4-(cyclopentyl(4-isopropylphenyl)amino)phenoxy)pyrido[3,4-d]pyrimidin-4-ol]		1000 to 10000	≤ 100
Cc1cc(Oc2nc(O)c3ccncc3n2)ccc1N(C)c1ccc(C(C)C)cc1 [Example 131, 2-(4-((4-isopropylphenyl)(methyl)amino)-3-methylphenoxy)pyrido[3,4-d]pyrimidin-4-ol]		100 to 1000	> 10000
CC(C)N1CCN(c2cccc(N(C)c3ccc(Oc4nc(O)c5ccncc5n4)cc3)c2)CC1 [Example 132, 2-(4-((3-(4-isopropylpiperazin-1-yl)phenyl)(methyl)amino)phenoxy)pyrido[3,4-d]pyrimidin-4-ol]			100 to 1000
CCc1ccc(N(C)c2ccc(Oc3nc(O)c4ccncc4n3)cc2)cc1OC [Example 135, 2-(4-((4-ethyl-3-methoxyphenyl)(methyl)amino)phenoxy)pyrido[3,4-d]pyrimidin-4-ol]		100 to 1000	1000 to 10000
CN1CC=C(c2cccc(N(C)c3ccc(Oc4nc(O)c5ccncc5n4)cc3)c2)CC1 [Example 139, 2-(4-(methyl(3-(1-methyl-1,2,3,6-tetrahydropyridin-4-yl)phenyl)amino)phenoxy)pyrido[3,4-d]pyrimidin-4-ol]		≤ 100	
CC(C)c1ccc(N(C)c2ccc(Oc3nc(O)c4ccncc4n3)cc2C(F)(F)F)cc1 [Example 143, 2-(4-((4-isopropylphenyl)(methyl)amino)-3-(trifluoromethyl)phenoxy)pyrido[3,4-d]pyrimidin-4-ol]		1000 to 10000	
CCOc1ccc(N2CCN(C)CC2)cc1N(C)c1ccc(Oc2nc(O)c3ccncc3n2)cc1 [Example 146, 2-(4-((2-ethoxy-5-(4-methylpiperazin-1-yl)phenyl)(methyl)amino)phenoxy)pyrido[3,4-d]pyrimidin-4-ol]		≤ 100	
Cc1ccc(N2CCN(C)CC2)cc1N(C)c1ccc(Oc2nc(O)c3ccncc3n2)cc1 [Example 147, 2-(4-(methyl(2-methyl-5-(4-methylpiperazin-1-yl)phenyl)amino)phenoxy)pyrido[3,4-d]pyrimidin-4-ol]		≤ 100	
Cc1cc(Oc2nc(O)c3ccncc3n2)ccc1N(C)c1ccc(C(C)(C)C)cc1 [Example 148, 2-(4-((4-(tert-butyl)phenyl)(methyl)amino)-3-methylphenoxy)pyrido[3,4-d]pyrimidin-4-ol]		100 to 1000	
CCCc1ccc(N(C)c2ccc(Oc3nc(O)c4ccncc4n3)cc2C)cc1 [Example 149, 2-(3-methyl-4-(methyl(4-propylphenyl)amino)phenoxy)pyrido[3,4-d]pyrimidin-4-ol]		100 to 1000	

The next lines start with the values.

IC50 [1] [nM]	IC50 (JMJD2C) [nM]	IC50 ([1]; Homo sapiens) [nM]	Molecule
	≤ 100	1000 to 10000	CC(C)c1ccc(Nc2ccc(Oc3nc(O)c4ccncc4n3)cc2)cc1 [Example 121, 2-(4-((4-isopropylphenyl)amino)phenoxy)pyrido[3,4-d]pyrimidin-4-ol]
	≤ 100	1000 to 10000	CC(C)c1ccc(N(c2ccc(Oc3nc(O)c4ccncc4n3)cc2)C2CCCN(C)C2)cc1 (centres unmarked) [Example 124, 2-(4-((4-isopropylphenyl)(1-methylpiperidin-3-yl)amino)phenoxy)pyrido[3,4-d]pyrimidin-4-ol]
	≤ 100	≤ 100	CC(C)c1ccc(N(c2ccc(Oc3nc(O)c4ccncc4n3)cc2)C2CCNC2)cc1 (centres unmarked) [Example 126, 2-(4-((4-isopropylphenyl)(pyrrolidin-3-yl)amino)phenoxy)pyrido[3,4-d]pyrimidin-4-ol]
	≤ 100	> 10000	CC(C)c1ccc(N(c2ccc(Oc3nc(O)c4ccncc4n3)cc2)C2CCN(C)C2)cc1 (centres unmarked) [Example 127, 2-(4-((4-isopropylphenyl)(1-methylpyrrolidin-3-yl)amino)phenoxy)pyrido[3,4-d]pyrimidin-4-ol]
	≤ 100	≤ 100	Cc1ccc2c(c1)CCN2c1ccc(Oc2nc(O)c3ccncc3n2)cc1 [Example 128]
	≤ 100	1000 to 10000	Cc1ccc2c(ccn2-c2ccc(Oc3nc(O)c4ccncc4n3)cc2)c1 [Example 129, 2-(4-(5-methyl-1H-indol-1-yl)phenoxy)pyrido[3,4-d]pyrimidin-4-ol]
	≤ 100	> 10000	CC(C)c1ccc(N(c2ccc(Oc3nc(O)c4ccncc4n3)cc2)C2CCCNC2)cc1 (centres unmarked) [Example 130, 2-(4-((4-isopropylphenyl)(piperidin-3-yl)amino)phenoxy)pyrido[3,4-d]pyrimidin-4-ol]
	≤ 100	1000 to 10000	CN1CCN(c2cccc(N(C)c3ccc(Oc4nc(O)c5ccncc5n4)cc3C(F)(F)F)c2)CC1 [Example 133, 2-(4-(methyl(3-(4-methylpiperazin-1-yl)phenyl)amino)-3-(trifluoromethyl)phenoxy)pyrido[3,4-d]pyrimidin-4-ol]
	≤ 100	1000 to 10000	Cc1cc(Oc2nc(O)c3ccncc3n2)ccc1N(C)c1cccc(N2CCN(C)CC2)c1 [Example 134, 2-(3-methyl-4-(methyl(3-(4-methyl-piperazin-1-yl)phenyl)amino)phenoxy)pyrido[3,4-d]pyrimidin-4-ol]
	≤ 100		CN1CCN(c2cccc(N(CC3CC3)c3ccc(Oc4nc(O)c5ccncc5n4)cc3)c2)CC1 [Example 142, 2-(4-((cyclopropylmethyl)(3-(4-methylpiperazin-1-yl)phenyl)amino)phenoxy)pyrido[3,4-d]pyrimidin-4-ol]
	≤ 100		CCc1ccc(N(C)c2ccc(Oc3nc(O)c4ccncc4n3)cc2C)cc1 [Example 144, 2-(4-((4-ethylphenyl)(methyl)amino)-3-methylphenoxy)pyrido[3,4-d]pyrimidin-4-ol]
	≤ 100		COc1ccc(N2CCN(C)CC2)cc1N(C)c1ccc(Oc2nc(O)c3ccncc3n2)cc1 [Example 145, 2-(4-((2-methoxy-5-(4-methylpiperazin-1-yl)phenyl)(methyl)amino)phenoxy)pyrido[3,4-d]pyrimidin-4-ol]
